The target in experiment [1] is T1, Dipeptidyl peptidase 1 (Homo sapiens, UniProt P53634). Briefly: Inhibition of human recombinant Cathepsin C using H-Gly-Arg-AMC as substrate pretreated for 30 mins followed by substrate addition and incubated for 60 mins by microplate reader assay.
Experiment [2] concerns the target T1, Dipeptidyl peptidase 1. Briefly: Inhibition of Cathepsin C in human THP-1 cells using H-Gly-Phe-AFC as substrate pretreated for 1 hr followed by substrate addition and incubated for 60 mins by microplate reader assay. The class given is cell-based.
For experiment [3], the target named is T1, Dipeptidyl peptidase 1. Briefly: Inhibition of Cathepsin C in human U-937 cells using H-Gly-Phe-AFC as substrate pretreated for 1 hr followed by substrate addition and incubated for 60 mins by microplate reader assay. It counts as cell-based.
A further experiment deals with Cathepsin B (Homo sapiens, UniProt P07858). Briefly: Inhibition of human recombinant Cathepsin B using Z-Leu-Arg-AMC as substrate pretreated for 60 mins followed by substrate addition and incubated for 30 mins by microplate reader assay.

Each structure is given as a SMILES string. pIC50: −log10 of the molar value. Some results are limits rather than exact numbers.

T1 sequence (P53634 25-134 limits assumed): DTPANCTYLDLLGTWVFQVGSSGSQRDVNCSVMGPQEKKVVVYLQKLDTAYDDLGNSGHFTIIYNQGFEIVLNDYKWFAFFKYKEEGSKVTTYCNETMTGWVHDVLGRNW
T1 sequence (P53634 231-394 limits assumed): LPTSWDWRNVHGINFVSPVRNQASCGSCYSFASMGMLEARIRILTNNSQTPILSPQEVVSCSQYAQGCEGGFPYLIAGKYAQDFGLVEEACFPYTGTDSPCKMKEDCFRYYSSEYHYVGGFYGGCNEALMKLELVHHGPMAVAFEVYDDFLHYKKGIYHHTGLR
T1 sequence (P53634 395-463 limits assumed): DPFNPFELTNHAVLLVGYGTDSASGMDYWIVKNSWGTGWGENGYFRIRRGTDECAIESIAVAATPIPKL

Turning to `Clc1cnc(Nc2ccc(-c3ccsc3)cn2)nc1NC1CCNCC1`, the figures for the pIC50 on Dipeptidyl peptidase 1 [1], on Dipeptidyl peptidase 1 [2] and on Dipeptidyl peptidase 1 [3] were 7.04, 6.92 and 6.77, respectively.

`FC(F)(F)c1cccc(Nc2nc(Nc3ccc(-c4ccsc4)cn3)ncc2-c2ccccc2)c1`: the pIC50 at Dipeptidyl peptidase 1 [1], on Dipeptidyl peptidase 1 [2] and on Dipeptidyl peptidase 1 [3] was < 5.30 each time.

For the compound `Fc1ccc(Nc2nc(Nc3ccc(-c4ccsc4)cn3)ncc2Cl)cc1`, the figures for the pIC50 at Dipeptidyl peptidase 1 [1], at Dipeptidyl peptidase 1 [2] and on Dipeptidyl peptidase 1 [3] were 6.89, 6.98 and 6.87, respectively.

As for `CS(=O)(=O)c1ccc(-c2cnc(Nc3ccc(-c4ccsc4)cn3)nc2Nc2cccc(C(F)(F)F)c2)cc1`, the pIC50 at Dipeptidyl peptidase 1 [1], on Dipeptidyl peptidase 1 [2] and on Dipeptidyl peptidase 1 [3] was < 5.30 in each case.

Regarding `FC(F)(F)c1cccc(Nc2nc(Nc3cnc(-c4ccsc4)cn3)ncc2Cl)c1`, the pIC50 at Dipeptidyl peptidase 1 [1], at Dipeptidyl peptidase 1 [2] and at Dipeptidyl peptidase 1 [3] was < 5.30 in each case.

As for `Nc1ccc(Nc2nc(Nc3ccc(-c4ccsc4)cn3)ncc2Cl)cc1`, the pIC50 – broadly, −log10 of the IC50, conventionally taken in molar units – is 7.24 at Dipeptidyl peptidase 1 [1], 6.96 on Dipeptidyl peptidase 1 [2], 7.05 at Dipeptidyl peptidase 1 [3] and < 5.30 on Cathepsin B.

For the compound `Cn1cc(-c2cnc(Nc3ccc(-c4ccsc4)cn3)nc2Nc2cccc(C(F)(F)F)c2)cn1`, the values for the pIC50 at Dipeptidyl peptidase 1 [1], on Dipeptidyl peptidase 1 [2] and on Dipeptidyl peptidase 1 [3] were 6.61, < 5.52 and 6.38, respectively.

As for `CC(=O)Nc1cccc(-c2cnc(Nc3ccc(-c4ccsc4)cn3)nc2Nc2cccc(C(F)(F)F)c2)c1`, the pIC50 on Dipeptidyl peptidase 1 [1], at Dipeptidyl peptidase 1 [2] and on Dipeptidyl peptidase 1 [3] was < 5.30 in each case.

On to `FC(F)(F)c1cccc(Nc2nc(Nc3ncc(-c4ccsc4)cn3)ncc2Cl)c1`, for which the pIC50 at Dipeptidyl peptidase 1 [1], on Dipeptidyl peptidase 1 [2] and at Dipeptidyl peptidase 1 [3] was < 5.30 each time.

On to `Fc1ccc(Nc2nc(Nc3ccc(-c4ccsc4)cn3)ncc2Cl)cc1F`, for which the pIC50 at Dipeptidyl peptidase 1 [1] is 7.00; on Dipeptidyl peptidase 1 [2] it was 6.80; on Dipeptidyl peptidase 1 [3], 6.76.

As for `O=[N+]([O-])c1cc(-c2ccsc2)cnc1Nc1ncc(Cl)c(Nc2cccc(C(F)(F)F)c2)n1`, the values for the negative-log IC50 (pIC50) at Dipeptidyl peptidase 1 [1], on Dipeptidyl peptidase 1 [2] and on Dipeptidyl peptidase 1 [3] were 6.82, 6.70 and 6.56, respectively.

In the case of `NC(=O)c1ccc(-c2cnc(Nc3ccc(-c4ccsc4)cn3)nc2Nc2cccc(C(F)(F)F)c2)cc1`, the pIC50 on Dipeptidyl peptidase 1 [1] is 6.88; at Dipeptidyl peptidase 1 [2], 6.45; on Dipeptidyl peptidase 1 [3], 6.55.

For `FC(F)(F)c1cccc(Nc2nc(Nc3ccc(-c4ccsc4)nc3)ncc2Cl)c1`, the values for the pIC50 at Dipeptidyl peptidase 1 [1], on Dipeptidyl peptidase 1 [2] and at Dipeptidyl peptidase 1 [3] were 6.99, 6.80 and 6.67, respectively.

In the case of `FC(F)(F)c1cccc(Nc2nc(Nc3cccc(-c4ccsc4)c3)ncc2Cl)c1`, the pIC50 was 7.18 on Dipeptidyl peptidase 1 [1], 6.69 on Dipeptidyl peptidase 1 [2], 6.75 at Dipeptidyl peptidase 1 [3] and < 5.30 on Cathepsin B.

For `FC(F)(F)c1cccc(Nc2nc(Nc3ccc(-c4ccsc4)cn3)ncc2Br)c1`, the pIC50 at Dipeptidyl peptidase 1 [1] was 7.01; at Dipeptidyl peptidase 1 [2] it was 6.69; on Dipeptidyl peptidase 1 [3], 6.75.

Turning to `NC(=O)c1cccc(-c2cnc(Nc3ccc(-c4ccsc4)cn3)nc2Nc2cccc(C(F)(F)F)c2)c1`, the pIC50 at Dipeptidyl peptidase 1 [1], at Dipeptidyl peptidase 1 [2] and at Dipeptidyl peptidase 1 [3] was < 5.30 each time.

As to `Nc1cccc(Nc2nc(Nc3ccc(-c4ccsc4)cn3)ncc2Cl)c1`, the pIC50 on Dipeptidyl peptidase 1 [1] is 6.88; at Dipeptidyl peptidase 1 [2], 6.81; on Dipeptidyl peptidase 1 [3], 6.90.

Take `CC(=O)Nc1ccc(Nc2nc(Nc3ccc(-c4ccsc4)cn3)ncc2Cl)cc1`: the pIC50 is 7.12 on Dipeptidyl peptidase 1 [1], 7.19 on Dipeptidyl peptidase 1 [2] and 7.00 at Dipeptidyl peptidase 1 [3].

With `Fc1ccc(Nc2nc(Nc3ccc(-c4ccsc4)cn3)ncc2Cl)cc1C(F)(F)F`, the pIC50 at Dipeptidyl peptidase 1 [1] is 6.85; at Dipeptidyl peptidase 1 [2], 6.77; at Dipeptidyl peptidase 1 [3], 6.70.

For the compound `Clc1cnc(Nc2ccc(-c3ccsc3)cn2)nc1Nc1ccccn1`, the pIC50 at Dipeptidyl peptidase 1 [1] was 6.99; at Dipeptidyl peptidase 1 [2], 6.85; on Dipeptidyl peptidase 1 [3], 6.81.

Turning to `FC(F)(F)c1cccc(Nc2nc(Nc3ccc(-c4ccsc4)nn3)ncc2Cl)c1`, the pIC50 at Dipeptidyl peptidase 1 [1] is 7.04; on Dipeptidyl peptidase 1 [2] it was 7.05; at Dipeptidyl peptidase 1 [3] it was 6.74.

Consider `FC(F)(F)c1cccc(Nc2nc(Nc3ccc(-c4ccsc4)cn3)ncc2-c2cccc(Cl)c2)c1`, for which the pIC50 at Dipeptidyl peptidase 1 [1], at Dipeptidyl peptidase 1 [2] and at Dipeptidyl peptidase 1 [3] was < 5.30 in each case.

With `CC(=O)Nc1ccc(-c2cnc(Nc3ccc(-c4ccsc4)cn3)nc2Nc2cccc(C(F)(F)F)c2)cc1`, the pIC50 is 7.21 at Dipeptidyl peptidase 1 [1], 6.99 on Dipeptidyl peptidase 1 [2] and 7.06 on Dipeptidyl peptidase 1 [3].

For `FC(F)(F)c1cccc(Nc2nc(Nc3ccc(-c4ccsc4)cn3)ncc2-c2ccc(Cl)cc2)c1`, the pIC50 is 6.67 on Dipeptidyl peptidase 1 [1], 6.54 at Dipeptidyl peptidase 1 [2] and 6.45 at Dipeptidyl peptidase 1 [3].

With `FC(F)(F)Oc1ccc(Nc2nc(Nc3ccc(-c4ccsc4)cn3)ncc2Cl)cc1`, the figures for the pIC50 at Dipeptidyl peptidase 1 [1], on Dipeptidyl peptidase 1 [2] and at Dipeptidyl peptidase 1 [3] were 7.03, 6.96 and 6.81, respectively.

Take `Nc1ccc(-c2cnc(Nc3ccc(-c4ccsc4)cn3)nc2Nc2cccc(C(F)(F)F)c2)cc1`: the pIC50 on Dipeptidyl peptidase 1 [1], at Dipeptidyl peptidase 1 [2] and at Dipeptidyl peptidase 1 [3] was < 5.30 throughout.

On to `FC(F)(F)c1cccc(Nc2nc(Nc3ccc(-c4ccsc4)cc3)ncc2Cl)c1`, for which the pIC50 on Dipeptidyl peptidase 1 [1], at Dipeptidyl peptidase 1 [2] and on Dipeptidyl peptidase 1 [3] was < 5.30 throughout.

Turning to `FC(F)(F)c1cccc(Nc2nc(Nc3ccc(-c4ccco4)cn3)ncc2Cl)c1`, the pIC50 on Dipeptidyl peptidase 1 [1], on Dipeptidyl peptidase 1 [2] and at Dipeptidyl peptidase 1 [3] was < 5.30 each time.

As for `CN1CCN(Cc2ccc(-c3cnc(Nc4ccc(-c5ccsc5)cn4)nc3Nc3cccc(C(F)(F)F)c3)cc2)CC1`, the negative logarithm of the IC50 (pIC50) on Dipeptidyl peptidase 1 [1], on Dipeptidyl peptidase 1 [2] and on Dipeptidyl peptidase 1 [3] was < 5.30 throughout.

On to `CC(=O)c1cccc(-c2cnc(Nc3ccc(-c4ccsc4)cn3)nc2Nc2cccc(C(F)(F)F)c2)c1`, for which the pIC50 is 6.81 on Dipeptidyl peptidase 1 [1], 6.51 at Dipeptidyl peptidase 1 [2] and 6.64 on Dipeptidyl peptidase 1 [3].

Regarding `FC(F)(F)c1cccc(Nc2nc(Nc3ccc(-c4ccsc4)cn3)ncc2-c2ccoc2)c1`, the pIC50 on Dipeptidyl peptidase 1 [1], on Dipeptidyl peptidase 1 [2] and on Dipeptidyl peptidase 1 [3] was < 5.30 each time.

As to `FC(F)(F)Oc1cccc(Nc2nc(Nc3ccc(-c4ccsc4)cn3)ncc2Cl)c1`, the pIC50 on Dipeptidyl peptidase 1 [1] was 6.60; on Dipeptidyl peptidase 1 [2] it was 6.75; at Dipeptidyl peptidase 1 [3] it was 6.61.

With `FC(F)(F)c1ccc(Nc2nc(Nc3ccc(-c4ccsc4)cn3)ncc2Cl)cc1`, the pIC50 was 6.98 on Dipeptidyl peptidase 1 [1], 6.74 at Dipeptidyl peptidase 1 [2] and 6.83 at Dipeptidyl peptidase 1 [3].

As to `FC(F)(F)c1cccc(Nc2nc(Nc3cc(-c4ccsc4)ccn3)ncc2Cl)c1`, the negative logarithm of the IC50 (pIC50) was 7.11 at Dipeptidyl peptidase 1 [1], 6.59 at Dipeptidyl peptidase 1 [2] and 6.81 on Dipeptidyl peptidase 1 [3].

With `CN1CC=C(c2cnc(Nc3ccc(-c4ccsc4)cn3)nc2Nc2cccc(C(F)(F)F)c2)CC1`, the pIC50 on Dipeptidyl peptidase 1 [1], at Dipeptidyl peptidase 1 [2] and at Dipeptidyl peptidase 1 [3] was < 5.30 in each case.

For `FC(F)(F)c1ccc(CNc2nc(Nc3ccc(-c4ccsc4)cn3)ncc2Cl)cc1`, the pIC50 at Dipeptidyl peptidase 1 [1] was 7.16; on Dipeptidyl peptidase 1 [2] it was 7.05; at Dipeptidyl peptidase 1 [3], 7.04.

As to `CN1CCN(c2ccc(-c3cnc(Nc4ccc(-c5ccsc5)cn4)nc3Nc3cccc(C(F)(F)F)c3)cc2)CC1`, the pIC50 at Dipeptidyl peptidase 1 [1], on Dipeptidyl peptidase 1 [2] and on Dipeptidyl peptidase 1 [3] was < 5.30 each time.

As for `FC(F)(F)c1cccc(Nc2nc(Nc3ccc(-c4ccsc4)cn3)ncc2-c2ccncc2)c1`, the pIC50 on Dipeptidyl peptidase 1 [1], at Dipeptidyl peptidase 1 [2] and on Dipeptidyl peptidase 1 [3] was < 5.30 each time.

For `FC(F)(F)c1cccc(Nc2nc(Nc3ccc(-c4cccs4)cn3)ncc2Cl)c1`, the figures for the pIC50 at Dipeptidyl peptidase 1 [1], at Dipeptidyl peptidase 1 [2] and at Dipeptidyl peptidase 1 [3] were 6.89, 6.89 and 6.40, respectively.

The record behind these values is ChEMBL document CHEMBL5154871, “Non-peptidyl non-covalent cathepsin C inhibitoEEr bearing a unique thiophene-substituted pyridine: Design, structure-activity relationship and anti-inflammatory activity in vivo” (Eur J Med Chem, 2022).
